Test results taken from patent US20250188030A1, “Biphenyl and Phenylpyridine Compounds” (Pfizer Inc., priority 2023, published 2025).
pIC50, pKi: −log10 of the molar value. Like-named read-outs stand apart in the source and are kept apart here.

How the values were obtained:
H3K9AC (HT1080 cells) = test: H3K9AC Sandwich ELISA Assay in HT1080 cells (KAT2A primary cell-based screening assay); design: species or system Human
Procedure, shortened: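 HT1080 fibrosarcoma cells seeded 16 h, then treated 24 h at 37 °C with 10-point 1:3 compound dilutions (top 10 µM final, 0.1% DMSO). Acid lysates neutralized with butyrate/PMSF; H3K9ac measured by total-H3-capture sandwich ELISA with luminescent HRP readout, IC50 by four-parameter fit.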

MM.1S cells = test: MM1.S 10 Day Proliferation Assay (CellTiter-Glo); format: cell-based, Human
Procedure, shortened: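 MM.1S cells, 500/well in ultra-low-attachment plates, were pre-incubated 16 h, then exposed to a 10-point 1:3 dilution series (top 10 μM final, 0.1% DMSO) for 10 days at 37 °C, with compound-containing medium refreshed at day 5. Viability was read by CellTiter-Glo luminescence; IC50 came from four-parameter fit.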

KAT2A = KAT2A (Homo sapiens (Human), UniProt Q92830); test: KAT2A acetyltransferase biochemical assay (RapidFire mass spectrometry, AcCoA to CoA)
Procedure: • A) Compound preparation • 1) Prepare 10 mM stock solutions in 100% DMSO from solid material. • 2) Serial dilute 10 mM, 1 mM, 0.1 or 0.01 mM compound stocks 3-fold in 100% DMSO for 11-point dose response. • B) Reagent preparation • 1) Prepare 1×assay buffer containing 40 mM bis tris propane pH 8.0, 10 mM NaCl, 0.5 mM EDTA, and 0.002% Tween-20. • 2) Dilute Histone peptide (CPC Scientific) and KAT enzyme together in assay buffer to 1.25×. • 3) Dilute AcCoA (Sigma) in assay buffer to 5×. • C) Enzyme reaction • 1) Final reaction conditions for each KAT assay in a 100ul assay reaction volume: • i) KAT2A 0.5 nM, 1 uM AcCoA, 5 uM H3 1-21 peptide, 90-minute reaction • ii) KAT2B 0.5 nM, 1 uM AcCoA, 5 uM H3 1-21 peptide, 90-minute reaction • 2) Add 2 ul of diluted compound series to the assay plate (96-well round-bottom polypropylene plates) or 2 ul of DMSO for control wells. • 3) Add 11 μL of 10% formic acid to 100% effect (HPE) control wells. • 4) Add 80 ul of 1.25× Histone peptide/KAT mix to the assay plate via Multidrop Combi (ThermoFisher). Incubate 15 min at room temperature. • 5) Add 20 ul of 5× AcCoA to the assay plate via Multidrop Combi. • 6) Stop the reaction after the indicated time with the addition of 11 ul of 10% formic acid via Multidrop Combi. • 7) Each reaction was analyzed using Rapid Fire mass spectrometry platform.
KAT enzymes were expressed using a baculovirus expression system and purified at Pfizer, La Jolla. […] Acetyl coenzyme A was purchased from Sigma-Aldrich (St. Louis, MO). All other biochemical reagents were purchased from Sigma-Aldrich or ThermoFisher Scientific (Waltham, MA).
KAT assays were performed at room temperature in assay buffer containing 1 μM AcCoA, 5 μM histone peptide, 40 mM bis tris propane pH 8.0, 10 mM NaCl, 0.5 mM EDTA 0.002% Tween-20. 80 ul of 1.25× Histone peptide/enzyme mix was added to a 96-well round-bottom polypropylene assay plate containing 2 ul of serially diluted test compound in 100% dimethyl sulfoxide (DMSO). To start the reaction, 20 ul of 5× AcCoA solution was added to the assay plate. KAT assays were terminated after 90 minutes with the addition of 11 ul of 10% formic acid. All assays used histone H3 (1-21) peptide. The final enzyme concentration for each KAT was as follows: KAT2A, 0.5 nM; KAT2B, 0.5 nM. […] Each reaction was analyzed using Rapid Fire mass spectrometry platform. This methodology leverages an Agilent 6495 triple quadrupole (QQQ) mass spectrometer coupled to a RapidFire model 365 to specifically capture and measure KAT2 acetyltransferase activity, converting AcCoA (substrate) to CoA (product).
Area under the curve (AUC) for both substrate and product peaks was determined for KAT2 at M.W. 809.6 [Substrate+H]+ and 767.3 [Product+H]+ with a +/−1 Da tolerance, respectively. Acetyltransferase activity (% of DMSO control) was calculated by: ((AUCProduct/AUCsubstrate)-AUCHPE)/(AUCZPE-AUCHPE))*100. Ki values were determined by fitting the % acetyltransferase activity at each inhibitor concentration to the Morrison equation for tightbinding competitive inhibitors using Pfizer proprietary curve fitting software.
To determine the inhibition of KAT enzymatic activity by test compounds, assay reactions were conducted in a volume of 100 μL in 96-well round-bottom polypropylene assay plate. The reactions were performed in assay buffer (40 mM bis tris propane, pH 8, 10 mM NaCl, 0.5 mM EDTA, 0.002% Tween-20).

[1] = Homo sapiens, HT-1080, H3K9AC sandwich ELISA
[2] = read-out: KAT2A Ki at 1 μM AcCoA, 5 μM H3 1-21 peptide, 0.5 nM KAT2A, 90-minute reaction

Sequence of KAT2A (Q92830 whole entry): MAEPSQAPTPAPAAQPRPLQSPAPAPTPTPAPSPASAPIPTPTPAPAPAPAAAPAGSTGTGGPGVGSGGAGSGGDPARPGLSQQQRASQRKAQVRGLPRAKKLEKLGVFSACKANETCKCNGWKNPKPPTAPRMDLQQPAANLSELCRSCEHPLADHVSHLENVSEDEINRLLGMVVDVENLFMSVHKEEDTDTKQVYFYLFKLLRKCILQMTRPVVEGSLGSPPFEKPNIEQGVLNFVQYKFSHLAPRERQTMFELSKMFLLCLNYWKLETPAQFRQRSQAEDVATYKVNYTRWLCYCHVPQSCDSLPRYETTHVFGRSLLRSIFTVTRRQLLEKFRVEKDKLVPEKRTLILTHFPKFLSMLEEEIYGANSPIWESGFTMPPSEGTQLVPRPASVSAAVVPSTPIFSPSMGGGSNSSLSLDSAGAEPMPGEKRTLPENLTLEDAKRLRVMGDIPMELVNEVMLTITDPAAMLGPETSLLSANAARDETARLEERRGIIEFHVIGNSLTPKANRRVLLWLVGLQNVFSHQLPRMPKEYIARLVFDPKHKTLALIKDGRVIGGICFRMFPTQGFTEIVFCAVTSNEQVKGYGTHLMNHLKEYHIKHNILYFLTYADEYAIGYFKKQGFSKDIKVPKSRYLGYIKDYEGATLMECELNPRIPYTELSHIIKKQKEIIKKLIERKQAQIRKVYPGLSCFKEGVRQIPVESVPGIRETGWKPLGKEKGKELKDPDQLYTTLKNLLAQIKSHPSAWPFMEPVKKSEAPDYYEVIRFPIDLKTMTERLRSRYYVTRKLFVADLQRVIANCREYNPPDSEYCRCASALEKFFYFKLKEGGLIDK

Row | pIC50 (H3K9AC (HT1080 cells); [1]) | pIC50 (MM.1S cells; Homo sapiens, MM1.S, 240 h) | pKi (KAT2A; [2]) | pIC50 (H3K9AC (HT1080 cells); H3K9AC sandwich ELISA) | pIC50 (MM.1S cells) | pKi (KAT2A; KAT2A Ki at 1 μM AcCoA, 5 μM H3 1-21 peptide, 0.5 nM KAT2A, 90-minute reaction) | SMILES
1 | 8.56 | 7.67 | 9.72 |  |  |  | C[C@H](C(=O)O)c1nn(C)cc1-c1ccc(O[C@@H]2CC[C@@H](NC(=O)[C@]3(F)CNC4(CCC4)C3)C2)c(-c2cccc(F)c2C2CCC2)c1 (single isomer, unassigned) [Example J5]
2 |  |  | < 7.00 | < 6.00 | < 5.00 |  | CC(C)c1c(F)cccc1-c1cc(C(C)(C)C(=O)O)ccc1O[C@@H]1CC[C@@H](NC(=O)[C@@]2(F)CNC3(CCC3)C2)C1 (single isomer, unassigned) [Example A21]
3 |  | 7.28 | 9.96 | 8.02 |  |  | CCc1c(F)cccc1-c1cc(C(C)(C)C(=O)NS(=O)(=O)C(C)C)ccc1O[C@@H]1CC[C@@H](NC(=O)[C@@]2(F)CNCC(C)(C)C2)C1 (single isomer, unassigned) [Example C45]
4 | 8.51 | 8.08 | 10.40 |  |  |  | CC(C)(C(=O)NS(=O)(=O)C1(C)CC1)c1ccc(O[C@@H]2CC[C@@H](NC(=O)[C@@]3(F)CNC4(CCC4)C3)C2)c(-c2cccc(F)c2C2CCC2)c1 (single isomer, unassigned) [Example B34]
5 | 8.85 | 7.85 | 9.74 |  |  |  | CC(C)(C(=O)NS(=O)(=O)C1CC1)c1ccc(O[C@@H]2CC[C@@H](NC(=O)[C@]3(F)CNC4(CCC4)C3)C2)c(-c2cccc(F)c2C2CCC2)c1 (single isomer, unassigned) [Example B12]
6 | 8.07 | 7.02 | 8.61 |  |  |  | O=C(O)Cc1ccc(OC[C@H]2C[C@H](NC(=O)[C@@]3(F)CNC4(CCC4)C3)C2)c(-c2cccc(F)c2C2CCC2)c1 (single isomer, unassigned) [Example F3, (2′-cyclobutyl-3′-fluoro-6-{[(1r,3r)-3-{[(7ξ)-7-fluoro-5-azaspiro[3.4]octane-7-carbonyl]amino}cyclobutyl]methoxy}[1,1′-biphenyl]-3-yl)acetic acid]
7 | 8.32 |  |  |  | 7.78 | 9.54 | CC(C(=O)NS(C)(=O)=O)c1ccc(O[C@@H]2CC[C@@H](NC(=O)[C@@H]3CC(C)(C)CN3C)C2)c(-c2cccc(F)c2C2CCC2)c1 (single isomer, unassigned) [Example E8]
8 |  | 8.30 | 10.40 | 8.49 |  |  | CCS(=O)(=O)NC(=O)Cc1ccc(O[C@@H]2CC[C@@H](NC(=O)C3(F)CNCC4(CCC4)C3)C2)c(-c2cccc(F)c2C2CCC2)c1 (single isomer, unassigned) [Example C60]
9 | 8.62 | 8.60 | 10.05 |  |  |  | CCS(=O)(=O)NC(=O)C(C)(C)c1ccc(O[C@@H]2CC[C@@H](NC(=O)[C@@]3(F)CNCC(C)(C)C3)C2)c(-c2cccc(F)c2C2CCC2)c1 (single isomer, unassigned) [Example B22]
10 | 8.75 | 8.55 | 10.70 |  |  |  | O=C(Cc1ccc(O[C@@H]2CC[C@@H](NC(=O)[C@@]3(F)CNC4(CCC4)C3)C2)c(-c2cccc(F)c2C2CCC2)c1)NS(=O)(=O)C1CC1 (single isomer, unassigned) [Example C31]
11 |  | 7.58 | 9.80 | 8.12 |  |  | CC(C)(C(=O)O)c1ccc(O[C@@H]2CC[C@@H](NC(=O)[C@@]3(F)CNCC4(CCC4)C3)C2)c(-c2cccc(F)c2C2CCC2)c1 (single isomer, unassigned) [Example A27]
12 |  |  | 6.15 | < 6.00 | < 5.00 |  | CC(C)c1c(F)cccc1-c1cc(C(C)(C)C(=O)NS(C)(=O)=O)ccc1O[C@@H]1CC[C@@H](NC(=O)[C@@]2(F)CNC3(CCC3)C2)C1 (single isomer, unassigned) [Example C20]
